These results are taken from ChEMBL document CHEMBL1201862, “PubChem BioAssay data set” (2004).

Activity calls are given as the source filed them.

Holding throughout (format): functional
For one test, the system named is CHO-K1. Briefly: Counterscreen for antagonists of the orexin 1 receptor (OX1R; HCRTR1): Homogeneous time resolved fluorescence (HTRF)-based cell-based dose response assay to identify antagonists of the parental CHO-K1 cell line. [Related pubchem assays (depositor defined):AID434989, AID435008, AID463079, AID485270, AID492963, AID492964, AID492965, AID493232, AID504699, AID504701]. The note with it: Cricetulus griseus.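 Further: potency for inhibition of ATP-stimulated IP1 production as antagonists.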

Test [1] has as its target T1, Sentrin-specific protease 8 (Homo sapiens, UniProt Q96LD8).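 Further: luminescence read-out of SENP8 inhibition, dose-response confirmation following an ultra-high-throughput screen.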
T1 sequence (Q96LD8 whole entry): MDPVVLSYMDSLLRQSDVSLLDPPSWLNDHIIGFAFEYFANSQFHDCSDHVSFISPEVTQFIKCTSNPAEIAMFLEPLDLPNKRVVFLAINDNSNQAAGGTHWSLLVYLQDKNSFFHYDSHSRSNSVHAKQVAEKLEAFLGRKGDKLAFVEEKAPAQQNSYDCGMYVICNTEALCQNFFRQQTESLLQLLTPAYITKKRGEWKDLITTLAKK

For the next test, the target named is T2, Orexin receptor type 2 (Homo sapiens, UniProt O43614).
T2 sequence (O43614 whole entry): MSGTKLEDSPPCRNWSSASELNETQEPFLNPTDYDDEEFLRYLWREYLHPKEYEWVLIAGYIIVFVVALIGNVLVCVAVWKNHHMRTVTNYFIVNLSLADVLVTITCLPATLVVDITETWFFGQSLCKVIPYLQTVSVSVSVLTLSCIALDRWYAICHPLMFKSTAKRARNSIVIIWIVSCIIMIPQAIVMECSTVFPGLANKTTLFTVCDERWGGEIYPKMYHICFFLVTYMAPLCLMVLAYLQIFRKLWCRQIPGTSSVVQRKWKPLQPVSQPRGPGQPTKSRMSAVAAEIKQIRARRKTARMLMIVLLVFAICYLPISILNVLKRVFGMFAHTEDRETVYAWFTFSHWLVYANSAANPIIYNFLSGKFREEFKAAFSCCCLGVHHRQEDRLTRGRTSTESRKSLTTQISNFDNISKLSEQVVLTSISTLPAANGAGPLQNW
The test is described as follows: Counterscreen assay for antagonists of the orexin 1 receptor (OX1R; HCRTR1): Homogeneous Time Resolved Fluorescence (HTRF)-based cell-based dose response assay for antagonists of the orexin 2 receptor (OX2R; HCRTR2), run by assay provider.

Test [2] concerns the target Tyrosine-protein kinase JAK2 (Homo sapiens, UniProt O60674).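 Further: JAK2 tested as one member of a kinase panel.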
Test [3] deals with 5'-AMP-activated protein kinase catalytic subunit alpha-1 (Homo sapiens, UniProt Q13131).
In test [4] the target is Proto-oncogene tyrosine-protein kinase receptor Ret (Homo sapiens, UniProt P07949).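 Further: measured within a kinome-wide profiling panel, RET as the panel member.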
Test [5] deals with Tyrosine-protein kinase receptor TYRO3 (Homo sapiens, UniProt Q06418).
Test [6] addresses Death-associated protein kinase 3 (Homo sapiens, UniProt O43293).
Test [7] addresses Tyrosine-protein kinase BTK (Homo sapiens, UniProt Q06187).
Test [8] deals with Serine/threonine-protein kinase PAK 4 (Homo sapiens, UniProt O96013).
For test [9], the target named is High affinity nerve growth factor receptor (Homo sapiens, UniProt P04629).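 Further: NTRK1 tested as one member of a kinome-wide profiling panel.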
The target of test [10] is Mitogen-activated protein kinase kinase kinase kinase 2 (Homo sapiens, UniProt Q12851).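 Further: measured as one member of a kinome-wide kinase panel, with MAP4K2 as the panel entry.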
For test [11], the target named is Tyrosine-protein kinase ABL1 (Homo sapiens, UniProt P00519).
Test [12] addresses Cyclin-dependent kinase 5 (Homo sapiens, UniProt Q00535).
The target in test [13] is Dual specificity tyrosine-phosphorylation-regulated kinase 1B (Homo sapiens, UniProt Q9Y463). Briefly: Navigating the Kinome. Panel member name: DYRK1B.
Test [14] addresses Platelet-derived growth factor receptor alpha (Homo sapiens, UniProt P16234). Briefly: Navigating the Kinome. Panel member name: PDGFRA.
Test [15] concerns the target Tyrosine-protein kinase Fyn (Homo sapiens, UniProt P06241).
For test [16], the target named is Serine/threonine-protein kinase Nek2 (Homo sapiens, UniProt P51955).
Test [17] concerns the target Vascular endothelial growth factor receptor 1 (Homo sapiens, UniProt P17948).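 Further: measured within a kinome-wide profiling panel, FLT1 as the panel member.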
Test [18] has as its target cAMP-dependent protein kinase catalytic subunit alpha (Homo sapiens, UniProt P17612).
The target of test [19] is Macrophage colony-stimulating factor 1 receptor (Homo sapiens, UniProt P07333).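 Further: value comes from the Navigating the Kinome screening panel, CSF1R member.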
Test [20] deals with Leukocyte tyrosine kinase receptor (Homo sapiens, UniProt P29376). Briefly: Navigating the Kinome. Panel member name: LTK.

Chain of 5'-AMP-activated protein kinase catalytic subunit alpha-1 (Q13131 whole entry): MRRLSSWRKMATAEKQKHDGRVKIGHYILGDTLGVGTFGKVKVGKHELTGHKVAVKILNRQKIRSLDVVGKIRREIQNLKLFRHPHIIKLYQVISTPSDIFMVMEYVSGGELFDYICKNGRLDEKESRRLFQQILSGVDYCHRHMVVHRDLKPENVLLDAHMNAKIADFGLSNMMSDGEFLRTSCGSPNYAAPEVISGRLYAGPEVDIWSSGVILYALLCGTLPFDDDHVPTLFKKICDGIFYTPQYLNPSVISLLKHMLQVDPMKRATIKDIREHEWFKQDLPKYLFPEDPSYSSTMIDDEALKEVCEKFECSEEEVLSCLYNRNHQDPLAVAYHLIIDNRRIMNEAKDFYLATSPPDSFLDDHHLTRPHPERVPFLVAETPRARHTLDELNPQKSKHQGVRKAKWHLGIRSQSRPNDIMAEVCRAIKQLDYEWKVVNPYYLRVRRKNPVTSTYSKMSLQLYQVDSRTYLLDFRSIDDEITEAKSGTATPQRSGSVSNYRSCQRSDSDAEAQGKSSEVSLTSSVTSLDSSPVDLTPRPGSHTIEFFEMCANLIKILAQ
Chain of Cyclin-dependent kinase 5 (Q00535 whole entry): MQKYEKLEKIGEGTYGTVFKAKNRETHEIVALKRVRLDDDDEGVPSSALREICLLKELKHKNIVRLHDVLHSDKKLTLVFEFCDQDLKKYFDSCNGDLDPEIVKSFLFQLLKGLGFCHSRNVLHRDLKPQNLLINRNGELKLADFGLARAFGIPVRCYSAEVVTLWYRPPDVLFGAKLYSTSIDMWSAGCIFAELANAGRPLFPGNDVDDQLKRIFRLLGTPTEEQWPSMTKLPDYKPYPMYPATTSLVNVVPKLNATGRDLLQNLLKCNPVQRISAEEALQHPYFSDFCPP
Chain of Dual specificity tyrosine-phosphorylation-regulated kinase 1B (Q9Y463 whole entry): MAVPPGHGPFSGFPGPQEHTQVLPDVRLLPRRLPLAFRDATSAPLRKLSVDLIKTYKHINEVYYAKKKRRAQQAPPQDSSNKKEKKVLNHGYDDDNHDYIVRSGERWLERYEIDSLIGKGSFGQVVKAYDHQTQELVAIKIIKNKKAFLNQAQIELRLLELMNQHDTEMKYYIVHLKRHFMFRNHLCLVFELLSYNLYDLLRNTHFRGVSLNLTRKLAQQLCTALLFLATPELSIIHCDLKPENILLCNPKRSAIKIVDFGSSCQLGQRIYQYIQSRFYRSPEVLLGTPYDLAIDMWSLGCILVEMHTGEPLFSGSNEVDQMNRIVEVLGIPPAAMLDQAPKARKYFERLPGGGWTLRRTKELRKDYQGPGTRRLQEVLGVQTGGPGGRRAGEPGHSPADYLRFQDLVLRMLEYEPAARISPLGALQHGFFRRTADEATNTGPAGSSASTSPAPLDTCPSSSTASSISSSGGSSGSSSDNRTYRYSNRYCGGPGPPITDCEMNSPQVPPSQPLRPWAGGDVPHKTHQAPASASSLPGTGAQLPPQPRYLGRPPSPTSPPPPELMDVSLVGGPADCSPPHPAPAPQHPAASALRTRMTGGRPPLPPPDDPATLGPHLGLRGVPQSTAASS
Chain of Tyrosine-protein kinase ABL1 (P00519 whole entry): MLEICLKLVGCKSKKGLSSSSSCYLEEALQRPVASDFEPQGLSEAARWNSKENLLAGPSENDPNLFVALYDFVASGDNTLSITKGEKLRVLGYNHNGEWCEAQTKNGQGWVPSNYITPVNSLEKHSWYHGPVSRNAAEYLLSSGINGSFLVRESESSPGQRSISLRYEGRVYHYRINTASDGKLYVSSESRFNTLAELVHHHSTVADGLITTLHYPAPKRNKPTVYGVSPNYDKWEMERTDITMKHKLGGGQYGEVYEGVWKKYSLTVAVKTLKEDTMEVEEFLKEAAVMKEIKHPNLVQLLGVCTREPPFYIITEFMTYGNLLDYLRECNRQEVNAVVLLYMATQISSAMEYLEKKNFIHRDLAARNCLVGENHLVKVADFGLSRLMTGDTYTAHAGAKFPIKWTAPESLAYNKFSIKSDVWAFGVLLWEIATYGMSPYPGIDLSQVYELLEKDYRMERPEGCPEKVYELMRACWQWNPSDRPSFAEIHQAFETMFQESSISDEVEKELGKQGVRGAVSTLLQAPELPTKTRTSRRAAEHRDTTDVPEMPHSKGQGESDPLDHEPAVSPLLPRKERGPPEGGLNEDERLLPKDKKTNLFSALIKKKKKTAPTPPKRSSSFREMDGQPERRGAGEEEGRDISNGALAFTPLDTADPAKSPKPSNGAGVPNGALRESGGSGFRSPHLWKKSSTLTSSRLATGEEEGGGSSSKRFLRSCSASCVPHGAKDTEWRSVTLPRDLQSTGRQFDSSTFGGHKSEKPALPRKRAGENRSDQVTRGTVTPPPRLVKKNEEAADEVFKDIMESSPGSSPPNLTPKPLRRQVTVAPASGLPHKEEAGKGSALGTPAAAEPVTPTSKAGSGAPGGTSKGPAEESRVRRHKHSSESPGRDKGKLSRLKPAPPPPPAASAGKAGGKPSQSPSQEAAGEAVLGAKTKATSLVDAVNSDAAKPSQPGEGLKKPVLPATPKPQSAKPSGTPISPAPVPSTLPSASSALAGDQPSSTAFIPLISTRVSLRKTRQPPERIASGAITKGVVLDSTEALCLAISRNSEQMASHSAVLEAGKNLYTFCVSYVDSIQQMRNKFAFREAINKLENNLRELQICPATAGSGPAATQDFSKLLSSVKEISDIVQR
Chain of Macrophage colony-stimulating factor 1 receptor (P07333 whole entry): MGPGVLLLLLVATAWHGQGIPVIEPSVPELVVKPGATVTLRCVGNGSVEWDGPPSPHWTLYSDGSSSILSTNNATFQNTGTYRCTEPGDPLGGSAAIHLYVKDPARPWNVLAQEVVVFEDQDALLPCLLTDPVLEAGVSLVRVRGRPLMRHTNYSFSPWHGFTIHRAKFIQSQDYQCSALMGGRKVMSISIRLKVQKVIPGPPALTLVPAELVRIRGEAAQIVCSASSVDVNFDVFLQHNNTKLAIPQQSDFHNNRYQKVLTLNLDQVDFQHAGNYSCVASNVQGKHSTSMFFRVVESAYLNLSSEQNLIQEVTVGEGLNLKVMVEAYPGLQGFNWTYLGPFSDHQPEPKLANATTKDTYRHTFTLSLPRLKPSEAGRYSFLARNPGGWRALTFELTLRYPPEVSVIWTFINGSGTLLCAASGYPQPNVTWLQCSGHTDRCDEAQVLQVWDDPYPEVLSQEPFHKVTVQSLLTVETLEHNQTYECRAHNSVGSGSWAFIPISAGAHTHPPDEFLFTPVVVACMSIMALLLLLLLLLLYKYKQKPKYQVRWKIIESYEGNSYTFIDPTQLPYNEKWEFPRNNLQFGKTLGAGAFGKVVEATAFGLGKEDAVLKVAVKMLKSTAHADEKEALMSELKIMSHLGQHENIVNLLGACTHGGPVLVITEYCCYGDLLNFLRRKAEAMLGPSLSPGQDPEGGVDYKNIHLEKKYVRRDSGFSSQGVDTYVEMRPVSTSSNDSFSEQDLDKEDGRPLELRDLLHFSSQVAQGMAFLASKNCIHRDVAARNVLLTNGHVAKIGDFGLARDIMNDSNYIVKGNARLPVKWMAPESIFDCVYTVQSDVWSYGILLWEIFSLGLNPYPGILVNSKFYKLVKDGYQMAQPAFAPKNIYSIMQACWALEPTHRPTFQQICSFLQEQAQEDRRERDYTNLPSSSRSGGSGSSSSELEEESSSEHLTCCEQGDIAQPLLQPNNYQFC
Chain of Serine/threonine-protein kinase Nek2 (P51955 whole entry): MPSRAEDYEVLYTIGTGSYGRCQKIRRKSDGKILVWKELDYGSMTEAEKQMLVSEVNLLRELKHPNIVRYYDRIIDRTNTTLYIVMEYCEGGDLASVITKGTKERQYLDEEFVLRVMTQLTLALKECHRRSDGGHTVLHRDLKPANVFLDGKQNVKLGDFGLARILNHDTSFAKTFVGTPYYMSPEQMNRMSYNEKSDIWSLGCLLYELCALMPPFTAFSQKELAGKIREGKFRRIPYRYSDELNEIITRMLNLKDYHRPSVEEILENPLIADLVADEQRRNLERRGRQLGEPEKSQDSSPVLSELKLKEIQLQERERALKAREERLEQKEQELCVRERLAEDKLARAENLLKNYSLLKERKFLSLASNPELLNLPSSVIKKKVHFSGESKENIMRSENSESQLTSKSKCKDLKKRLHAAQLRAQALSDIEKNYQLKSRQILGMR
Chain of Mitogen-activated protein kinase kinase kinase kinase 2 (Q12851 whole entry): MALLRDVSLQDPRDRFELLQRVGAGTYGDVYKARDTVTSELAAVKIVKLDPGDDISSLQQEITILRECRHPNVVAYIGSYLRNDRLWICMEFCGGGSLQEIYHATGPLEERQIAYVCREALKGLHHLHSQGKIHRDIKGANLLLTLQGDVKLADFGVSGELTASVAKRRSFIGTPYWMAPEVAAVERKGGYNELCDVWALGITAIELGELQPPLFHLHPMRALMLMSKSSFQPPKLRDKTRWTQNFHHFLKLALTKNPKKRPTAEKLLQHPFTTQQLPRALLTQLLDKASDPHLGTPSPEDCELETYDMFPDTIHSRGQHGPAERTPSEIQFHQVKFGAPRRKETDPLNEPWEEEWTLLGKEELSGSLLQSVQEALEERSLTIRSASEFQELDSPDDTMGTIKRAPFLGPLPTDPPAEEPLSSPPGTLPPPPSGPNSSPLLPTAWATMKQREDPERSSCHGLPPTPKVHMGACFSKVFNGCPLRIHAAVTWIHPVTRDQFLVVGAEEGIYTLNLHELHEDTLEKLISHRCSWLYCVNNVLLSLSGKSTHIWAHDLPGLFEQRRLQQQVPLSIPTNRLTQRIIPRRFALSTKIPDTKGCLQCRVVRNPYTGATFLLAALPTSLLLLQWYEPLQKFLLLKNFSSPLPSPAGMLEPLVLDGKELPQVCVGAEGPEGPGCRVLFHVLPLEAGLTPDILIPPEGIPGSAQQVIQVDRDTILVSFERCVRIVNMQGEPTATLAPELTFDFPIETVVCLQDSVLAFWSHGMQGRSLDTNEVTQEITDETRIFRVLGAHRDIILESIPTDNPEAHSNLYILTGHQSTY

In the case of `Cc1ccnc2ccc(-c3nc4ccccc4o3)cc12`, the values for the IC50 (in the test with CHO-K1; in test [1]; at Orexin receptor type 2) were > 66.2 µM (inactive), 71 µM (active) and > 50 µM (inactive), respectively.
For the compound `O=C(NCCc1cccs1)N1CC=C(c2c[nH]c3ncccc23)CC1`, the Ki (as a rule, a measure of affinity in units of concentration, obtained from inhibition or displacement) in test [2] is > 2.51 µM (inactive); in [3], 2 µM (active); in test [4], > 3.16 µM (inactive); in test [5], > 3.16 µM (inactive); in test [6], 3.98 µM (active); in test [7], > 6.31 µM (inactive). The Ki in [8] is > 5.01 µM (inactive); in [9] it was > 3.16 µM (inactive); in [10], > 2.51 µM (inactive); in test [11], > 2.51 µM (inactive); in test [12], 0.158 µM (active); in test [13] it was 0.0398 µM (active). Moreover, the Ki is > 2.51 µM (inactive) in test [14]; > 6.31 µM (inactive) in test [15]; > 3.16 µM (inactive) in test [16]; > 3.98 µM (inactive) in test [17]; 0.0631 µM (active) in test [18]; > 2.51 µM (inactive) in [19]. For the same compound, the Ki in test [20] was > 2.51 µM (inactive).
